From PubChem BioAssay AID2060493 (Molecular Pharmacology Branch, DTP, NCI, 2025)

Tested on: 616215-338-R-J1-PDC tumor spheroids, viability
Test: Anticancer human tumor 616215-338-R-J1-PDC patient-derived colon adenocarcinoma cell line growth inhibition [GQUAD]
Conditions: spheroids with HUVEC and MSC; for IC50: curve of first compound; for viability, T/C: stronger effect = lower value
Outline: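 Viability of tumor cells grown as complex spheroids with endothelial and stromal cells, exposed to drug combinations. Top concentration at or near clinical Cmax (else 10 microM), diluted in half-log increments.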

[1] = second compound 0.0316 µM, first compound 0.0316 µM
[2] = second compound 0.0316 µM, first compound 0.1 µM
[3] = second compound 0.0316 µM, first compound 0.316 µM
[4] = second compound 0.0316 µM, first compound 1 µM
[5] = second compound 0.0316 µM, first compound 3.16 µM
[6] = second compound 0.0316 µM, first compound 10 µM
[7] = second compound 0.1 µM, first compound 0.0316 µM
[8] = second compound 0.1 µM, first compound 0.1 µM
[9] = second compound 0.1 µM, first compound 0.316 µM
[10] = second compound 0.1 µM, first compound 1 µM
[11] = second compound 0.1 µM, first compound 3.16 µM
[12] = second compound 0.1 µM, first compound 10 µM
[13] = second compound 0.316 µM, first compound 0.0316 µM
[14] = second compound 0.316 µM, first compound 0.1 µM
[15] = second compound 0.316 µM, first compound 0.316 µM
[16] = second compound 0.316 µM, first compound 1 µM
[17] = second compound 0.316 µM, first compound 3.16 µM
[18] = second compound 0.316 µM, first compound 10 µM
[19] = second compound 1 µM, first compound 0.0316 µM
[20] = second compound 1 µM, first compound 0.1 µM
[21] = second compound 1 µM, first compound 0.316 µM
[22] = second compound 1 µM, first compound 1 µM
[23] = second compound 1 µM, first compound 3.16 µM
[24] = second compound 1 µM, first compound 10 µM
[25] = second compound 3.16 µM, first compound 0.0316 µM
[26] = second compound 3.16 µM, first compound 0.1 µM
[27] = second compound 3.16 µM, first compound 0.316 µM
[28] = second compound 3.16 µM, first compound 1 µM
[29] = second compound 3.16 µM, first compound 3.16 µM
[30] = second compound 3.16 µM, first compound 10 µM
[31] = second compound 10 µM, first compound 0.0316 µM
[32] = second compound 10 µM, first compound 0.1 µM
[33] = second compound 10 µM, first compound 0.316 µM
[34] = second compound 10 µM, first compound 1 µM
[35] = second compound 10 µM, first compound 3.16 µM
[36] = second compound 10 µM, first compound 10 µM
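Further: spheroids exposed to agents for 7 days before readout.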
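Wherever viability, T/C is given: percent viability relative to DMSO vehicle control wells taken as 100%.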

SMILES: CC(C)n1c(=O)n(C)c2cnc3cc(F)c(-c4ccc(OCCCN5CCCCC5)nc4)cc3c21 + Cc1cnc(CNC(=O)c2c(=O)c3ccc(N4CCCN(C)CC4)nc3n3c2sc2ccccc23)cn1
- IC50 (second compound 0.0316 µM): 5420 nM
- IC50 (second compound 0.1 µM): 31.6 nM
- IC50 (second compound 0.316 µM): < 31.6 nM
- IC50 (second compound 1 µM): < 31.6 nM
- IC50 (second compound 3.16 µM): < 31.6 nM
- IC50 (second compound 10 µM): < 31.6 nM
- viability, T/C [1]: 82%
- viability, T/C [2]: 62%
- viability, T/C [3]: 47.6%
- viability, T/C [4]: 69.5%
- viability, T/C [5]: 64%
- viability, T/C [6]: 33.9%
- viability, T/C [7]: 48.3%
- viability, T/C [8]: 48.5%
- viability, T/C [9]: 52.2%
- viability, T/C [10]: 34%
- viability, T/C [11]: 36.9%
- viability, T/C [12]: 28.8%
- viability, T/C [13]: 40.6%
- viability, T/C [14]: 43.3%
- viability, T/C [15]: 53.8%
- viability, T/C [16]: 38.5%
- viability, T/C [17]: 46.8%
- viability, T/C [18]: 13.4%
- viability, T/C [19]: 28.3%
- viability, T/C [20]: 36.1%
- viability, T/C [21]: 29.9%
- viability, T/C [22]: 28.2%
- viability, T/C [23]: 34.3%
- viability, T/C [24]: 30.5%
- viability, T/C [25]: 22.5%
- viability, T/C [26]: 25.6%
- viability, T/C [27]: 32.1%
- viability, T/C [28]: 23.2%
- viability, T/C [29]: 26.9%
- viability, T/C [30]: 8.45%
- viability, T/C [31]: 31.1%
- viability, T/C [32]: 41.4%
- viability, T/C [33]: 19.9%
- viability, T/C [34]: 31.9%
- viability, T/C [35]: 24.1%
- viability, T/C [36]: 19.2%

SMILES: Nc1ccn(C2OC(CO)C(O)C2(F)F)c(=O)n1 (stereo not drawn) + Cc1cnc(CNC(=O)c2c(=O)c3ccc(N4CCCN(C)CC4)nc3n3c2sc2ccccc23)cn1
- IC50 (second compound 0.0316 µM): < 31.6 nM
- IC50 (second compound 0.1 µM): 109 nM
- IC50 (second compound 0.316 µM): < 31.6 nM
- IC50 (second compound 1 µM): < 31.6 nM
- IC50 (second compound 3.16 µM): < 31.6 nM
- IC50 (second compound 10 µM): < 31.6 nM
- viability, T/C [1]: 35.4%
- viability, T/C [2]: 35.6%
- viability, T/C [3]: 16.7%
- viability, T/C [4]: 14.6%
- viability, T/C [5]: 17.8%
- viability, T/C [6]: 14.1%
- viability, T/C [7]: 48.2%
- viability, T/C [8]: 56.5%
- viability, T/C [9]: 20.4%
- viability, T/C [10]: 16.5%
- viability, T/C [11]: 19.9%
- viability, T/C [12]: 14.9%
- viability, T/C [13]: 45.8%
- viability, T/C [14]: 26.8%
- viability, T/C [15]: 17.7%
- viability, T/C [16]: 20.3%
- viability, T/C [17]: 15.1%
- viability, T/C [18]: 17%
- viability, T/C [19]: 32.5%
- viability, T/C [20]: 30.7%
- viability, T/C [21]: 24.1%
- viability, T/C [22]: 28.2%
- viability, T/C [23]: 18.3%
- viability, T/C [24]: 18.4%
- viability, T/C [25]: 28.4%
- viability, T/C [26]: 41.8%
- viability, T/C [27]: 24%
- viability, T/C [28]: 20.4%
- viability, T/C [29]: 16.4%
- viability, T/C [30]: 23.5%
- viability, T/C [31]: 28.4%
- viability, T/C [32]: 28.8%
- viability, T/C [33]: 22.4%
- viability, T/C [34]: 21%
- viability, T/C [35]: 20%
- viability, T/C [36]: 18.5%

SMILES: CC(=O)O[C@H]1C(=O)[C@@]2(C)[C@H]([C@H](OC(=O)c3ccccc3)[C@]3(O)C[C@H](OC(=O)[C@H](O)[C@@H](NC(=O)c4ccccc4)c4ccccc4)C(C)=C1C3(C)C)[C@]1(OC(C)=O)CO[C@@H]1C[C@@H]2O + CN(C)c1ccc(Nc2c3ccc(NC(=O)CCN4CCCC4)cc3nc3cc(NC(=O)CCN4CCCC4)ccc23)cc1
- IC50 (second compound 0.0316 µM): < 31.6 nM
- IC50 (second compound 0.1 µM): < 31.6 nM
- IC50 (second compound 0.316 µM): < 31.6 nM
- IC50 (second compound 1 µM): < 31.6 nM
- IC50 (second compound 3.16 µM): < 31.6 nM
- IC50 (second compound 10 µM): < 31.6 nM
- viability, T/C [1]: 28.9%
- viability, T/C [2]: 20.4%
- viability, T/C [3]: 18.1%
- viability, T/C [4]: 14.6%
- viability, T/C [5]: 12.1%
- viability, T/C [6]: 13.2%
- viability, T/C [7]: 24.7%
- viability, T/C [8]: 19.5%
- viability, T/C [9]: 16.4%
- viability, T/C [10]: 14%
- viability, T/C [11]: 12.8%
- viability, T/C [12]: 11.4%
- viability, T/C [13]: 41.4%
- viability, T/C [14]: 22.1%
- viability, T/C [15]: 14.8%
- viability, T/C [16]: 10.8%
- viability, T/C [17]: 12.3%
- viability, T/C [18]: 14.2%
- viability, T/C [19]: 34%
- viability, T/C [20]: 15%
- viability, T/C [21]: 16%
- viability, T/C [22]: 8.58%
- viability, T/C [23]: 16.5%
- viability, T/C [24]: 12.9%
- viability, T/C [25]: 28.6%
- viability, T/C [26]: 14.3%
- viability, T/C [27]: 15.3%
- viability, T/C [28]: 11.1%
- viability, T/C [29]: 11.2%
- viability, T/C [30]: 11.8%
- viability, T/C [31]: 26.2%
- viability, T/C [32]: 16.4%
- viability, T/C [33]: 17.4%
- viability, T/C [34]: 12.2%
- viability, T/C [35]: 9.14%
- viability, T/C [36]: 11.9%

SMILES: CC1COCCN1c1cc(-c2ccnn2C)c2ccnc(-c3ccn[nH]3)c2n1 (stereo not drawn) + CN(C)c1ccc(Nc2c3ccc(NC(=O)CCN4CCCC4)cc3nc3cc(NC(=O)CCN4CCCC4)ccc23)cc1
- IC50 (second compound 0.0316 µM): 157 nM
- IC50 (second compound 0.1 µM): 147 nM
- IC50 (second compound 0.316 µM): 164 nM
- IC50 (second compound 1 µM): 142 nM
- IC50 (second compound 3.16 µM): 129 nM
- IC50 (second compound 10 µM): 129 nM
- viability, T/C [1]: 99.1%
- viability, T/C [2]: 61.8%
- viability, T/C [3]: 31.1%
- viability, T/C [4]: 25.6%
- viability, T/C [5]: 18.4%
- viability, T/C [6]: 21.6%
- viability, T/C [7]: 94.4%
- viability, T/C [8]: 58.5%
- viability, T/C [9]: 33.5%
- viability, T/C [10]: 21.2%
- viability, T/C [11]: 21.6%
- viability, T/C [12]: 22.4%
- viability, T/C [13]: 93%
- viability, T/C [14]: 65.4%
- viability, T/C [15]: 29.1%
- viability, T/C [16]: 23.1%
- viability, T/C [17]: 20.7%
- viability, T/C [18]: 18.6%
- viability, T/C [19]: 90.1%
- viability, T/C [20]: 55.5%
- viability, T/C [21]: 38.1%
- viability, T/C [22]: 22.6%
- viability, T/C [23]: 18.8%
- viability, T/C [24]: 25.7%
- viability, T/C [25]: 91.7%
- viability, T/C [26]: 55.6%
- viability, T/C [27]: 30.2%
- viability, T/C [28]: 23.8%
- viability, T/C [29]: 22.2%
- viability, T/C [30]: 16.7%
- viability, T/C [31]: 88.4%
- viability, T/C [32]: 53.8%
- viability, T/C [33]: 35.8%
- viability, T/C [34]: 24.2%
- viability, T/C [35]: 19.7%
- viability, T/C [36]: 18.5%
